TGI data for 14 molecules are collected here from PubChem BioAssay (NCI).

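Exposure lasted 48 hours, with cells grown in 96-well plates and compounds tested at five concentrations. TGI is the concentration that stops growth completely.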

Among the test systems are SR leukemia; PC-3 prostate; RXF 393 renal; NCI-H226 lung; RPMI-8226 leukemia; M14 melanoma; SN12C renal; SK-MEL-28 melanoma; SF-295 CNS; SNB-19 CNS.
Holding throughout (test): NCI tumour cell line growth inhibition, 48 h

Consider `N#CC(NNC(=O)c1ccccc1O)c1c(O)ccc2ccccc12` (stereo not drawn), for which the TGI in the assay with SR leukemia was 40.8 µM; in the assay on PC-3 prostate, greater than 55.1 µM; in the assay with RXF 393 renal it was 29.9 µM; in the assay with NCI-H226 lung, 13.4 µM; in the assay with RPMI-8226 leukemia it was 43 µM; in the assay with M14 melanoma, 30 µM. Also, the TGI is 37.9 µM with SN12C renal, greater than 100 µM in the assay on SK-MEL-28 melanoma, 50.5 µM in the assay on SF-295 CNS and greater than 100 µM in the assay with SNB-19 CNS.
In the case of `CC(=O)NN(c1ccccc1)C1CCN(c2ccccc2)N1C(C)=O` (stereo not drawn), the TGI in the assay with SR leukemia, in the assay with PC-3 prostate, with RXF 393 renal, in the assay on NCI-H226 lung, in the assay on RPMI-8226 leukemia and with M14 melanoma was greater than 10 µM each time. Also, the TGI in the assay on SN12C renal, with SK-MEL-28 melanoma, in the assay with SF-295 CNS and in the assay on SNB-19 CNS was greater than 10 µM throughout.
On to `COC(=O)C(=O)C(C(=O)C(=O)Nc1ccc(C)c(C)c1)c1nc2ccc([N+](=O)[O-])cc2[nH]c1=O` (stereo not drawn), for which the TGI in the assay on SR leukemia, with PC-3 prostate, in the assay with RXF 393 renal, in the assay with NCI-H226 lung, with RPMI-8226 leukemia and with M14 melanoma was greater than 100 µM each time. The TGI in the assay with SN12C renal, in the assay on SK-MEL-28 melanoma, in the assay on SF-295 CNS and in the assay on SNB-19 CNS was greater than 100 µM throughout.
Turning to `COc1ccc(/C=N/NC(=S)Nc2cc(C)ccc2OC)cc1`, the TGI in the assay with SR leukemia was 41.9 µM; in the assay on PC-3 prostate, greater than 100 µM; in the assay on RXF 393 renal, greater than 100 µM; in the assay with RPMI-8226 leukemia it was 27.6 µM; in the assay with M14 melanoma, 65.6 µM; with SN12C renal it was 68.6 µM. In addition, the TGI in the assay with SK-MEL-28 melanoma, in the assay with SF-295 CNS and in the assay on SNB-19 CNS was greater than 100 µM each time.
On to `COc1ccc(CC[N+]2(C)COc3cc4oc(=O)cc(C)c4cc3C2)cc1OC` (stereo not drawn), for which the TGI with SR leukemia, in the assay on PC-3 prostate, with RXF 393 renal, in the assay on NCI-H226 lung, in the assay on RPMI-8226 leukemia and with M14 melanoma was greater than 100 µM in each case. In addition, the TGI in the assay on SN12C renal, in the assay on SK-MEL-28 melanoma, with SF-295 CNS and in the assay with SNB-19 CNS was greater than 100 µM throughout.
For the molecule `COc1cc(/C=C2/Oc3c(OC)cccc3C2=O)ccc1O`, the TGI in the assay on SR leukemia, with PC-3 prostate, in the assay with RXF 393 renal, in the assay on NCI-H226 lung, in the assay on RPMI-8226 leukemia and in the assay on M14 melanoma was greater than 100 µM each time. Also, the TGI in the assay on SN12C renal, with SK-MEL-28 melanoma, in the assay with SF-295 CNS and in the assay with SNB-19 CNS was greater than 100 µM throughout.
With `Cc1ccccc1Nc1nc2ccccc2nc1NS(=O)(=O)c1ccccc1`, the TGI with SR leukemia, in the assay with PC-3 prostate, in the assay with RXF 393 renal, with NCI-H226 lung, with RPMI-8226 leukemia and in the assay on M14 melanoma was greater than 100 µM throughout. Also, the TGI in the assay with SN12C renal, with SK-MEL-28 melanoma, in the assay on SF-295 CNS and in the assay on SNB-19 CNS was greater than 100 µM each time.
In the case of `C/C(Nc1ccc(Cl)cc1)=C1/CCOC1=O`, the TGI was greater than 100 µM with SR leukemia; greater than 100 µM in the assay on PC-3 prostate; greater than 100 µM with RXF 393 renal; greater than 100 µM in the assay with NCI-H226 lung; 60.3 µM with RPMI-8226 leukemia; greater than 100 µM with M14 melanoma. Moreover, the TGI in the assay on SN12C renal, in the assay on SK-MEL-28 melanoma, in the assay on SF-295 CNS and in the assay on SNB-19 CNS was greater than 100 µM each time.
Consider `COc1cc2c(cc1OC)C(=O)N(c1ccc(OCCN3CCCC3)cc1)C2=O`, for which the TGI in the assay with SR leukemia, in the assay on PC-3 prostate, with RXF 393 renal, in the assay with NCI-H226 lung, in the assay with RPMI-8226 leukemia and in the assay with M14 melanoma was greater than 100 µM in each case. Further, the TGI with SN12C renal, in the assay on SK-MEL-28 melanoma, in the assay with SF-295 CNS and in the assay on SNB-19 CNS was greater than 100 µM each time.
For `CC(C)[C@@H]1NC(=O)[C@@H]2N=C(O[C@H]2C)[C@H](C(C)C)NC(=O)C2N=C1O[C@H]2C`, the TGI in the assay on SR leukemia, in the assay with PC-3 prostate, in the assay on RXF 393 renal, in the assay on NCI-H226 lung, in the assay on RPMI-8226 leukemia and with M14 melanoma was greater than 100 µM throughout. The TGI in the assay with SN12C renal, in the assay on SK-MEL-28 melanoma, in the assay on SF-295 CNS and with SNB-19 CNS was greater than 100 µM each time.
For `CC[C@@]12CCC(=S)N(CCSc3ccccc3)[C@@H]1c1c(n(S(=O)(=O)c3ccc(OC)cc3)c3ccccc13)CC2`, the TGI in the assay with SR leukemia, in the assay on PC-3 prostate, in the assay on RXF 393 renal, with NCI-H226 lung, in the assay with RPMI-8226 leukemia and in the assay with M14 melanoma was greater than 100 µM throughout. Further, the TGI in the assay with SN12C renal, in the assay with SK-MEL-28 melanoma, with SF-295 CNS and in the assay with SNB-19 CNS was greater than 100 µM throughout.
In the case of `CC(NNC(=O)c1ccncc1)c1ccc(Cl)cc1Cl` (stereo not drawn), the TGI with SR leukemia, in the assay with PC-3 prostate, with RXF 393 renal, in the assay on NCI-H226 lung, with RPMI-8226 leukemia and in the assay on M14 melanoma was greater than 100 µM in each case. For the same molecule, the TGI in the assay with SN12C renal, with SK-MEL-28 melanoma, in the assay with SF-295 CNS and with SNB-19 CNS was greater than 100 µM throughout.
Take `COc1cccc(N=NN2CCCC2)c1`: the TGI in the assay with SR leukemia, in the assay with PC-3 prostate, in the assay with RXF 393 renal, in the assay with NCI-H226 lung, in the assay on RPMI-8226 leukemia and with M14 melanoma was greater than 100 µM in each case. For the same molecule, the TGI in the assay on SN12C renal, with SF-295 CNS and in the assay with SNB-19 CNS was greater than 100 µM each time.
Turning to `CC(=O)O[C@H]1C(=O)[C@@]2(C)[C@H]([C@H](OC(=O)c3ccco3)[C@]3(O)C[C@H](OC(=O)[C@H](O)[C@@H](NC(=O)c4ccccc4)c4ccccc4)C(C)=C1C3(C)C)[C@]1(OC(C)=O)CO[C@@H]1C[C@@H]2O`, the TGI in the assay with SR leukemia is greater than 7.67 µM; in the assay with PC-3 prostate it was greater than 23.5 µM; in the assay on RXF 393 renal, 3.76 µM; in the assay on NCI-H226 lung, greater than 5.05 µM; in the assay with RPMI-8226 leukemia it was 0.131 µM; in the assay with M14 melanoma it was greater than 25 µM. Further, the TGI was greater than 25 µM in the assay on SN12C renal, greater than 25 µM in the assay on SK-MEL-28 melanoma, greater than 19.7 µM with SF-295 CNS and greater than 25 µM in the assay on SNB-19 CNS.
